# Source: ChEMBL document CHEMBL2073838, “Selectivity of the multidrug resistance modulator, LY335979, for P-glycoprotein and effect on cytochrome P-450 activities” (J Pharmacol Exp Ther, 1999)
# Key:
# [1] = molecular target: ATP-binding cassette sub-family C member 2 (Homo sapiens, UniProt Q92887); assay: TP_TRANSPORTER: inhibition of LTC4 uptake (LTC4: 0.05 uM, MK571: 10 uM) in membrane vesicles from MRP2-expressing MDCK cells; assay type: functional, cell membranes, Membrane vesicle; details: dog
# Chain of ATP-binding cassette sub-family C member 2 (Q92887 whole entry): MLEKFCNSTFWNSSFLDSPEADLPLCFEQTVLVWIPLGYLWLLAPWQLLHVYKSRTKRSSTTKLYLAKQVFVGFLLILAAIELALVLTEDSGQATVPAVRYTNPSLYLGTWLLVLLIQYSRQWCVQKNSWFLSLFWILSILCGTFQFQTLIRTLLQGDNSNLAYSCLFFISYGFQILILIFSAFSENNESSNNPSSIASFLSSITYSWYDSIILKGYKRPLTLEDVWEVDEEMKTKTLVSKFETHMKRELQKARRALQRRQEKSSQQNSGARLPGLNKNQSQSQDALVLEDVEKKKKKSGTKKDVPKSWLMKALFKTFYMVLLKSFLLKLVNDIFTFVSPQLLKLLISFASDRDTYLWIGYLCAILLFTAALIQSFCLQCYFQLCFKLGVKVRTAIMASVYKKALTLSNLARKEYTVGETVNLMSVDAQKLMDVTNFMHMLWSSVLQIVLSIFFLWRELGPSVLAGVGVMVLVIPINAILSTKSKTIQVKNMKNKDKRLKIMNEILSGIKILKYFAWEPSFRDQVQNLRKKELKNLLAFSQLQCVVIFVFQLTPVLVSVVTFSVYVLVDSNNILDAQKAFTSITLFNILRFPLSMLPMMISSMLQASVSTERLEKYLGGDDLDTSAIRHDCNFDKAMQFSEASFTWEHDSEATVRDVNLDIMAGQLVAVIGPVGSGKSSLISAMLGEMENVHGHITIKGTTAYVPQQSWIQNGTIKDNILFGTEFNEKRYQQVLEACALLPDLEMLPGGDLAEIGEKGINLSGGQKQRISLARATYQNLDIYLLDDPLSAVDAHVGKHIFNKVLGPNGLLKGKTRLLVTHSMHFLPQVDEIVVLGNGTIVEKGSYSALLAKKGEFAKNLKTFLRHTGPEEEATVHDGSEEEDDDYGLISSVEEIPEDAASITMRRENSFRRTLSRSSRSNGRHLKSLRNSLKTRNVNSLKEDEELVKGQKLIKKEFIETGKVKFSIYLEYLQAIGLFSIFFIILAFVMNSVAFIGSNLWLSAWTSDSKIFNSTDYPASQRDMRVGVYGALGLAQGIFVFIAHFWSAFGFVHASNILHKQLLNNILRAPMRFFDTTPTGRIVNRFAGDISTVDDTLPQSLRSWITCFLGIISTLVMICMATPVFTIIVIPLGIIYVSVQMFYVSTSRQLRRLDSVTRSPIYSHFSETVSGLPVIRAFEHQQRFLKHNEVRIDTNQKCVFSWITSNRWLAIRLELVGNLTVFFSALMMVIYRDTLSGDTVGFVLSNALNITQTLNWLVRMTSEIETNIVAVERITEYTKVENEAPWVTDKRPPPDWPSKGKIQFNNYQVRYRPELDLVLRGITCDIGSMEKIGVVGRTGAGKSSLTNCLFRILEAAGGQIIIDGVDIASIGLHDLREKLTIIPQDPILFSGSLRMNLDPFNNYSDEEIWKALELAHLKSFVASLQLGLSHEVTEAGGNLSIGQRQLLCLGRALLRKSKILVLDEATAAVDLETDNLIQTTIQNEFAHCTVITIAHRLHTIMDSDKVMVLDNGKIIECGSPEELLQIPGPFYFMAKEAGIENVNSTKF
# [2] = molecular target: ATP-dependent translocase ABCB1 (Homo sapiens, UniProt P08183); assay: TP_TRANSPORTER: cell accumulation in CCRF-CEM and CEM/VLB100 cells; assay type: functional, cell-based
# Chain of ATP-dependent translocase ABCB1 (P08183 whole entry): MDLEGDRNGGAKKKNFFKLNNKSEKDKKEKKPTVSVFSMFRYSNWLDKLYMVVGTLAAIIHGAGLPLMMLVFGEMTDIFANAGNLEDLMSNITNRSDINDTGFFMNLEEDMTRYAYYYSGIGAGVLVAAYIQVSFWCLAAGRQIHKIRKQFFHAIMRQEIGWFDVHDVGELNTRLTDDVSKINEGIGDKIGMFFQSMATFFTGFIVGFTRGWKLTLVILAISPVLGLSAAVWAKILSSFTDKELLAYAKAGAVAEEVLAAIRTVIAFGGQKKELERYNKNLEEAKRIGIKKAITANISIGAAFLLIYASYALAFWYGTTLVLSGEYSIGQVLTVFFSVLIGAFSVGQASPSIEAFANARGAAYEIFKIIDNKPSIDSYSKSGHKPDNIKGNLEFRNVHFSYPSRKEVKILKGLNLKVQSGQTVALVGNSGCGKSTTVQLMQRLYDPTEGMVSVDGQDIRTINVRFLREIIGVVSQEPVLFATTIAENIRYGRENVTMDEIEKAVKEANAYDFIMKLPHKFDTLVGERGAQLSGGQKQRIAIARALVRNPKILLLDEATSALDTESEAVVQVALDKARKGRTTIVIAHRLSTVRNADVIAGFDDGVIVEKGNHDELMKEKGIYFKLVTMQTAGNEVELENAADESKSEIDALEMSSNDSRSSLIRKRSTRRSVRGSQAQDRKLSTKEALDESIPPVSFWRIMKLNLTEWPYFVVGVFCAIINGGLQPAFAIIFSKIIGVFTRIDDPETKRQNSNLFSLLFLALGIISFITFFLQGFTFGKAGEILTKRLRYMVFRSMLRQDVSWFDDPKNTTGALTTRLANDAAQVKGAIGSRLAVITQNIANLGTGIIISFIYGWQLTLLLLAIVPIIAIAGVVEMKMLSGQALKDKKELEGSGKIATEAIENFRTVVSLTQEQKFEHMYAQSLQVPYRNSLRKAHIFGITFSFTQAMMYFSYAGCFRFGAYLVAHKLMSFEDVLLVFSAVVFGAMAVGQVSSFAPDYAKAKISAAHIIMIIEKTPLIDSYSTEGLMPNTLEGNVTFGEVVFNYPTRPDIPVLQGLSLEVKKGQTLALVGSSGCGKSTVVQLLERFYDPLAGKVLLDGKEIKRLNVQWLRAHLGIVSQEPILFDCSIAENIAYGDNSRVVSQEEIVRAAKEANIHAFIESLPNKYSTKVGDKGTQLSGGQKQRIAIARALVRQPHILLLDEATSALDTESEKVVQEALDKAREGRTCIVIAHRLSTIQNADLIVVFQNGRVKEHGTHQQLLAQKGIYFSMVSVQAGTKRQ
compound,measurement,setting,value
CN(C)C(=O)CCSC(SCCC(=O)O)c1cccc(/C=C/c2ccc3ccc(Cl)cc3n2)c1 (stereo not drawn) [MK-571],Activity,[1],inhibitor [+]
CC[C@]1(O)C[C@@H]2CN(CCc3c([nH]c4ccccc34)[C@@](C(=O)OC)(c3cc4c(cc3OC)N(C)[C@H]3[C@@](O)(C(=O)OC)[C@H](OC(C)=O)[C@]5(CC)C=CCN6CC[C@]43[C@@H]65)C2)C1 [VINBLASTINE],Activity,[2],substrate [+]
Cl.Cl.Cl.O[C@@H](COc1cccc2ncccc12)CN1CCN([C@@H]2c3ccccc3[C@@H]3[C@H](c4ccccc42)C3(F)F)CC1 [ZOSUQUIDAR TRIHYDROCHLORIDE],Activity,[2],is not a substrate [-]
